Test [1] addresses T1, Endoplasmic reticulum mannosyl-oligosaccharide 1,2-alpha-mannosidase (Homo sapiens, UniProt Q9UKM7).
T1 sequence (Q9UKM7 whole entry): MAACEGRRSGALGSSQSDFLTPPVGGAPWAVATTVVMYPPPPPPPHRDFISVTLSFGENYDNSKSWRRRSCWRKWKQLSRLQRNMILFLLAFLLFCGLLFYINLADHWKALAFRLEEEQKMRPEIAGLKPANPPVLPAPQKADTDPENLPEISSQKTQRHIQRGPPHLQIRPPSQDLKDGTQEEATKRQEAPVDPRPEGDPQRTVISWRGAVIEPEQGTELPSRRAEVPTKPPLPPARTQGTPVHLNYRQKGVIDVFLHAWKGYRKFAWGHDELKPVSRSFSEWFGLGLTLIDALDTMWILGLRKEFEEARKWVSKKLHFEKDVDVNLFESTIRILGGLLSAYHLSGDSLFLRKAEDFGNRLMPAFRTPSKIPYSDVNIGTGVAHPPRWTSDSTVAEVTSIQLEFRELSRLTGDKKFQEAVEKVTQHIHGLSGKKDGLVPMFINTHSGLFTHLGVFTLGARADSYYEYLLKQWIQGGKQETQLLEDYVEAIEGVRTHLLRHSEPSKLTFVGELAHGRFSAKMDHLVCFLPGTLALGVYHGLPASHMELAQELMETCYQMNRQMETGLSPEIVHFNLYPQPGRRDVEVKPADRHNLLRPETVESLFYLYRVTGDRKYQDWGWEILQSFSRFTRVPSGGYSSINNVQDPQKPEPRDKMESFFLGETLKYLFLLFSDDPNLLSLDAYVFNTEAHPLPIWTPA
Briefly: Inhibition of human ER alpha mannosidase 1.

The next test deals with Canavalia ensiformis. Kind of test: Inhibition of jack bean alpha-mannosidase assessed as p-nitrophenylglycoside substrate hydrolysis at 1 mM.
Another test addresses T2, Alpha-mannosidase 2 (Homo sapiens, UniProt Q16706).
T2 sequence (Q16706 whole entry): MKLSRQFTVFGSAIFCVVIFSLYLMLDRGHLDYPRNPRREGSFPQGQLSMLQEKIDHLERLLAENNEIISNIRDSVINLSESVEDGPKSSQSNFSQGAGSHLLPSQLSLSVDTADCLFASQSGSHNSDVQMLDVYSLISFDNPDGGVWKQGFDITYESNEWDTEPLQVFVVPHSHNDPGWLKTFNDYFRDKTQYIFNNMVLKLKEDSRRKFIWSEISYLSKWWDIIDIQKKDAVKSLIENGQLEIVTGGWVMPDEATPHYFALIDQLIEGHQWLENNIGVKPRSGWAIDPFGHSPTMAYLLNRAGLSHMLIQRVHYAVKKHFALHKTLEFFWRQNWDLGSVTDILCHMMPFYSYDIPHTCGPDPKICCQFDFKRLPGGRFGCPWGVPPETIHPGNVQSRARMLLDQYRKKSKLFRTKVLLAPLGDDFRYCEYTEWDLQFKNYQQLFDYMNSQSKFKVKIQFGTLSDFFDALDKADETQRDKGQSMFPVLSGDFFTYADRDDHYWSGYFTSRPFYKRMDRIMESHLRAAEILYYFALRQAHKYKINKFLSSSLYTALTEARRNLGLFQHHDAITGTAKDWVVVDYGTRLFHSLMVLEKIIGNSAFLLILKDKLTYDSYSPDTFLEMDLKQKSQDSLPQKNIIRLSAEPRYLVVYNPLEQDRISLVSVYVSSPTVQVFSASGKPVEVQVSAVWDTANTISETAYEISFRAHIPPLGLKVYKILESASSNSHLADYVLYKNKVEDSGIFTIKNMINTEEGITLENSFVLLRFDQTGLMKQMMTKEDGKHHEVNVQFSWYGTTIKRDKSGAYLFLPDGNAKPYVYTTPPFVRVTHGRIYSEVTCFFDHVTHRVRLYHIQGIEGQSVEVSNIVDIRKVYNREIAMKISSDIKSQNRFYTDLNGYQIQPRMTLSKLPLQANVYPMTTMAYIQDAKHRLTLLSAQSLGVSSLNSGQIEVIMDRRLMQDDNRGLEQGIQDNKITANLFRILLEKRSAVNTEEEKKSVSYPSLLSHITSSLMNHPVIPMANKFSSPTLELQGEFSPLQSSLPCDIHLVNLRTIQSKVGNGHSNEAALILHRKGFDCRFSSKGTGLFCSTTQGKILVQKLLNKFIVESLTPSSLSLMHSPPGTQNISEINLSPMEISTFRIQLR
Kind of test: Inhibition of human golgi alpha mannosidase 2.

In another test the test system is Prunus dulcis. Briefly: Inhibition of almond alpha-mannosidase assessed as p-nitrophenylglycoside substrate hydrolysis at 1 mM.

Each structure is given as a SMILES string. Active and inactive are the calls of the source. No cut-off for these calls is given here.

Consider `O[C@H]1[C@@H](O)CN[C@@H]1CN[C@@H](COCOc1ccc(F)cc1)c1ccccc1`, for which the Ki worked out at 0.44 µM in test [1] and 6.47 µM at Alpha-mannosidase 2. The inhibition in the test on Canavalia ensiformis came out at 92%.
Taken in the same sequence, the figures for `O[C@H]1[C@@H](O)CN[C@@H]1CN[C@@H](COCOc1ccc(Br)cc1)c1ccccc1` were 0.31 µM, 15.5 µM and 92%.
Take `C[C@H](O)NC[C@H]1NC[C@H](O)[C@@H]1O`: the Ki was determined as 488 µM in test [1] and 683 µM on Alpha-mannosidase 2. For the same compound, the inhibition in the test on Prunus dulcis stood at 45%; in the test on Canavalia ensiformis, 66%.
Consider `O[C@H]1[C@@H](O)CN[C@@H]1CN[C@@H](COCc1cccc(F)c1)c1ccccc1`, for which the Ki came to 0.76 µM in test [1] and 9.14 µM on Alpha-mannosidase 2. Further, the inhibition with Canavalia ensiformis is 99%.
Take `O[C@H]1[C@@H](O)CN[C@@H]1CN[C@@H](COCc1ccccc1)c1ccccc1`: the Ki is 0.23 µM in test [1] and 68.3 µM on Alpha-mannosidase 2. Further, the inhibition came out at 75% in the test with Prunus dulcis and 92% in the test on Canavalia ensiformis.
For `O[C@@H]1CNC[C@@H]1O`, the inhibitory constant (Ki) in test [1] came out at 3.24 µM; on Alpha-mannosidase 2, 531 µM. The inhibition with Prunus dulcis came out at 40%; in the test on Canavalia ensiformis, 70%.
The corresponding values for `O[C@H]1[C@@H](O)CN[C@@H]1CN[C@@H](c1ccccc1)[C@H](O)c1ccccc1` are 2.62 µM, 25.9 µM, 50% and 84%.
The corresponding values for `NC[C@H]1NC[C@H](O)[C@@H]1O` are 1.59 µM, 1310 µM, 51% and 81%.
The corresponding values for `O[C@H]1[C@@H](O)CN[C@@H]1CNCC1CCN(Cc2ccccc2)CC1` are 13.1 µM, 43.2 µM, 59% and 55%.
For the compound `O[C@H]1[C@@H](O)CN[C@@H]1CNCc1ccco1`, the Ki in test [1] came to 136 µM; on Alpha-mannosidase 2 it was 292 µM. For the same compound, the inhibition in the test on Prunus dulcis was found to be 29%; with Canavalia ensiformis, 49%.
With `O=C(NC[C@H](NC[C@H]1NC[C@H](O)[C@@H]1O)c1ccccc1)c1ccccc1Br`, the Ki was found to be 0.16 µM in test [1] and 4.35 µM on Alpha-mannosidase 2. Besides, the inhibition in the test on Canavalia ensiformis stood at 89%.
Regarding `O[C@H]1[C@@H](O)CN[C@@H]1CN[C@H](c1ccccc1)[C@@H](O)c1ccccc1`, the Ki in test [1] came to 0.79 µM; on Alpha-mannosidase 2 it was 7.77 µM. The results for the inhibition in the test with Prunus dulcis and with Canavalia ensiformis were 55% and 88%, respectively.
Taken in the same sequence, the figures for `CC(NC[C@H]1NC[C@H](O)[C@@H]1O)c1ccccc1` (stereo partly specified) were 28.1 µM, 82.3 µM, 48% and 66%.
The corresponding values for `O[C@H]1[C@@H](O)CN[C@@H]1CNC1CCCC1` are 66.9 µM, 333 µM, 53% and 60%.
In the case of `COC[C@H](NC[C@H]1NC[C@H](O)[C@@H]1O)c1ccccc1`, the Ki amounted to 12.1 µM in test [1] and 36 µM at Alpha-mannosidase 2. Besides, the figures for the inhibition in the test with Prunus dulcis and in the test with Canavalia ensiformis were 63% and 77%, respectively.
With `O[C@H]1[C@@H](O)CN[C@@H]1CNCc1ccccc1`, the results for the inhibition constant (Ki) (in test [1]; on Alpha-mannosidase 2) were 35 µM and 152 µM, respectively. Also, the inhibition with Canavalia ensiformis is 92%.
As for `O[C@H]1[C@@H](O)CN[C@@H]1CNCn1ccnc1`, the Ki in test [1] amounted to 326 µM; at Alpha-mannosidase 2, 568 µM. The inhibition in the test on Prunus dulcis was found to be 59%; in the test with Canavalia ensiformis, 55%.
Taken in the same sequence, the figures for `O[C@H]1[C@@H](O)CN[C@@H]1CNCc1cccs1` were 77.7 µM, 233 µM, 68% and 89%.
Taken in the same sequence, the figures for `C[C@@H](O)NC[C@H]1NC[C@H](O)[C@@H]1O` were 918 µM, 450 µM, 39% and 75%.
The corresponding values for `OCC(O)[C@H]1NC[C@H](O)[C@@H]1O` (stereo partly specified) are 169 µM, 229 µM, “inactive” and “inactive”.
As to `O[C@H]1[C@@H](O)CN[C@@H]1CN[C@@H](COCOc1cccc(Br)c1)c1ccccc1`, the inhibition constant Ki in test [1] turned out to be 0.31 µM; on Alpha-mannosidase 2, 12.8 µM. Also, the inhibition in the test on Canavalia ensiformis amounted to 79%.
For the compound `OC[C@@H](NC[C@H]1NC[C@H](O)[C@@H]1O)c1ccccc1`, the Ki in test [1] is 12 µM; on Alpha-mannosidase 2 it was 29.9 µM. In addition, the values for the inhibition with Prunus dulcis and with Canavalia ensiformis were 55% and 92%, respectively.
The corresponding values for `CC(=O)N(CNC[C@H]1NC[C@H](O)[C@@H]1O)Cc1ccccc1` are 44.8 µM, 64.9 µM, “inactive” and “inactive”.
The corresponding values for `O[C@H]1[C@@H](O)CN[C@@H]1CCNc1ccccc1` are 74.3 µM, 123 µM, “inactive” and 33%.
Taken in the same sequence, the figures for `OC[C@H]1NC[C@H](O)[C@@H]1O` [IMINORIBITOL] were 1.26 µM, 1430 µM, 37% and 54%.
Turning to `CC(NC[C@H]1NC[C@H](O)[C@@H]1O)C(O)(c1ccccc1)c1ccccc1` (stereo partly specified), the inhibitory constant (Ki) in test [1] stood at 27.1 µM; at Alpha-mannosidase 2, 80.8 µM. Besides, the inhibition result in the test on Prunus dulcis and in the test with Canavalia ensiformis was “inactive” each time.
On to `OC[C@H](NC[C@H]1NC[C@H](O)[C@@H]1O)c1ccccc1`, for which the Ki in test [1] was determined as 16.8 µM; at Alpha-mannosidase 2, 26.9 µM. For the same compound, the inhibition with Prunus dulcis came out at 93%.
Consider `OC(O)C[C@H]1NC[C@H](O)[C@@H]1O`, for which the Ki was 287 µM in test [1] and 438 µM at Alpha-mannosidase 2. Besides, the inhibition in the test with Canavalia ensiformis was found to be 81%.
The corresponding values for `O[C@H]1[C@@H](O)CN[C@@H]1CN[C@@H](COCOc1ccccc1F)c1ccccc1` are 0.91 µM, 11.3 µM and 83%.
As for `OC[C@H](NC[C@H]1N[C@H](CO)[C@H](O)[C@@H]1O)c1ccccc1`, the results for the Ki (in test [1]; on Alpha-mannosidase 2) were 24.6 µM and 11.8 µM, respectively. Further, the inhibition with Prunus dulcis was 96%; in the test with Canavalia ensiformis it was 98%.

For the origin of these results see ChEMBL document CHEMBL2203079, “Virtual screening and QSAR study of some pyrrolidine derivatives as α-mannosidase inhibitors for binding feature analysis” (Bioorg Med Chem, 2012).
